What was measured:
4T1-luciferase tumors = assay: 4T1-luciferase tumor IVIS bioluminescence, co-injection with crystals; format: in vivo, BALB/c mice; settings: 2 mg of 150-200 μm crystals co-injected with 4T1-luciferase cells; up to 20 days; vs PBS controls; p<0.05
Description: To determine long-term potential of tunable, slow-releasing crystal-formulated sorafenib, efficacy of a single injection of the injectable drug composition was measured in a syngeneic model of triple negative breast cancer (TNBC): 4T1 tumors grown orthotopically in the mammary fat pad of BALB/c mice. For in vivo testing, mice were anesthetized with inhaled isofluorane and inoculated with 4T1, also referred to as 4T1-Luciferase, Luc, cancer cells, injected into the right inguinal mammary fat pad, as shown in FIG. 3A. […] Tumor presence was quantified over time up to 20 days post injection in both cases based on measured luminescence in equivalent regions of interest (ROIs, white circles), depicted in FIG. 3C. […]
4T1 or 4T1-luc2 cells were trypsinized using 0.25% Trypsin-EDTA, then diluted with the appropriate complete culture media and spun in a centrifuge at 300 g for 5 min. […] Cells were counted with a Countess automated cell counter. […] Tumors were measured externally using a digital caliper, and volume was calculated (!″* (length * height) *−length * height). […]
4T1-Luc2 tumor-injected mice were dosed with RediJect D-Luciferin K+ salt 5 minutes prior to examination. […] Equivalent regions of interest (ROIs) were used for quantification of tumor groups.

[1] = body weight of treated tumor-bearing mice; format: in vivo, BALB/c mice; settings: crystals in ~100-200 μl saline, IP or SC, any site or dose tested
Description: However, due to the highly hydrophobic nature of sorafenib, its daily 25 mg/kg bolus dosing regimen required regular used of a solvent solution made up of ˜60% of the strong organic solvent dimethylsulfoxide (DMSO). […] In stark contrast, no DMSO was required for delivery of sorafenib crystals, for which instead simply utilized ˜100-200 μl of saline to inject into the desired IP or SC tissue sites.
Once tumors had reached an average volume of ˜220-250 mm^3, mice were administered either subcutaneously or intraperitoneally with 3 or 10 mg of crystalline sorafenib, diameter ˜150-200 μm, suspended in 200 μL of sterile saline using an 18 g needle. As a control, mice (n=4) were dosed with sorafenib dissolved at a concentration of 4 mg/mL in a solution of 65% DMSO (remainder DPBS). Mice were dosed either subcutaneously or intraperitoneally with a bolus of 25 mg drug per kg of bodyweight (BW), daily. As a secondary control, mice were dosed with the 65% DMSO/PBS vehicle to monitor changes in body score based on the vehicle alone.

[2] = in vitro release under accelerated release conditions; format: physicochemical; settings: 37° C., PBS+0.3% SDS, 2.9 mg drug, 12-day time course; amorphous vs 50 μm vs 150-200 μm crystals
Source text: After crystals visibly stopped precipitating or growing, the vessel was submerged in an ultrasonic water bath for 10-30 seconds to dislodge crystals from the vessel sidewall and break them into more a uniform size distributions, either smaller fines, for example 50 μm, or between 150-200 μm, as measured by brightfield and scanning electron microscopy, shown in FIGS. 2A-2B. Resultant product was then removed from the supernatant mother solution, dried, weighed, and stored for later use. On average, yielded crystal was approximately 40% of the starting powder. Furthermore, methods exist to quantify solubilized material, typically using optics to identify changes in light transmittance, and enabled testing of crystal stability in a range of aqueous solutions. […] To simulate cumulative drug release over time, all 3 mL supernatant volumes were removed and replaced with completely fresh release media at desired times of 1 hr, 4 hr, 6 hr, 8 hr, 10 hr, 1 day, 2 days, 5 days, 7 days, 10 days and 12 days, and 200 μL aliquots were measured in individual wells of a 96-well plate at 266 nm to determine solubilize sorafenib release, as shown in FIG. 2D.
Release studies were carried out under accelerated conditions in PBS with 0.3% w/v SDS in 1X PBS. […] Drug concentration in samples was measured using a UV-calibrated Tecan infinite M200 PRO. […]

With `CNC(=O)c1cc(Oc2ccc(NC(=O)Nc3ccc(Cl)c(C(F)(F)F)c3)cc2)ccn1` [crystalline sorafenib, sorafenib] the “anti-tumor efficacy (tumor luminescence in ROIs)” value (4T1-luciferase tumors) was “significant anti-tumor efficacy”, the effect on bodyweight [1] was “did not negatively affect bodyweight” and the “release of solubilized sorafenib (cumulative)” value [2] was “tuned by varying crystal”.

Reference: patent US20240366577A1, “CONTROLLED LONG-TERM DRUG DELIVERY AND METHODS THEREOF” (THE JOHNS HOPKINS UNIVERSITY, priority 2021, published 2024)
